Data taken from ChEMBL document CHEMBL5032513, “Propionamide Derivatives as Dual μ-Opioid Receptor Agonists and σ1 Receptor Antagonists for the Treatment of Pain” (J Med Chem, 2021).

Tests used:
[1] = Dissociation constant, pKa of compound; type: physicochemical
[2] = Lipophilicity, logP of compound; type: physicochemical; details: octanol/water
[3] = Distribution coefficient, logD of compound; type: physicochemical; details: octanol/water
[4] = Apparent permeability across apical to basolateral side in human Caco-2 cells; type: ADME, cell-based
[5] = Half life in CD-1 mouse at 40 mg/kg, ip by HPLC-MS/MS analysis; type: ADME, organism-based; details: in vivo
[6] = Half life in CD-1 mouse at 1 mg/kg, iv by HPLC-MS/MS analysis; type: ADME, organism-based; details: in vivo
[7] = Cmax in CD-1 mouse at 10 mg/kg, po by HPLC-MS/MS analysis; type: ADME, organism-based; design: route oral, dose 10 mg/kg; details: in vivo
[8] = Cmax in CD-1 mouse at 40 mg/kg, ip by HPLC-MS/MS analysis; type: ADME, organism-based; design: route intraperitoneal, dose 40 mg/kg; details: in vivo
[9] = Tmax in CD-1 mouse at 10 mg/kg, po by HPLC-MS/MS analysis; type: ADME, organism-based; details: in vivo
[10] = Tmax in CD-1 mouse at 40 mg/kg, ip by HPLC-MS/MS analysis; type: ADME, organism-based; details: in vivo
[11] = AUC(0 to t) in CD-1 mouse at 10 mg/kg, po by HPLC-MS/MS analysis; type: ADME, organism-based; design: dose 10 mg/kg; details: in vivo
[12] = AUC(0 to t) in CD-1 mouse at 40 mg/kg, ip by HPLC-MS/MS analysis; type: ADME, organism-based; design: dose 40 mg/kg; details: in vivo
[13] = AUC(0 to t) in CD-1 mouse at 1 mg/kg, iv by HPLC-MS/MS analysis; type: ADME, organism-based; design: dose 1 mg/kg; details: in vivo
[14] = AUC in CD-1 mouse at 40 mg/kg, ip by HPLC-MS/MS analysis; type: ADME, organism-based; design: dose 40 mg/kg; details: in vivo
[15] = AUC in CD-1 mouse at 1 mg/kg, iv by HPLC-MS/MS analysis; type: ADME, organism-based; design: dose 1 mg/kg; details: in vivo
[16] = Clearance in CD-1 mouse at 1 mg/kg, iv by HPLC-MS/MS analysis; type: ADME, organism-based; details: in vivo
[17] = Volume of distribution at steady state in CD-1 mouse at 1 mg/kg, iv by HPLC-MS/MS analysis; type: ADME, organism-based; details: in vivo, read-out: Vdss
[18] = Oral bioavailability in CD-1 mouse plasma at 10 mg/kg by HPLC-MS/MS analysis; type: ADME, organism-based
[19] = Bioavailability in CD-1 mouse plasma at 40 mg/kg, ip by HPLC-MS/MS analysis; type: ADME, organism-based
[20] = AUC in Wistar rat plasma at 40 mg/kg, ip; type: ADME, organism-based; design: dose 40 mg/kg
[21] = AUC in Wistar rat brain at 40 mg/kg, ip; type: ADME, organism-based; design: dose 40 mg/kg

pKa [1]: 8.9
logP [2]: 3.7
logD [3]: 2.2
Papp A→B [4]: 16.9 ×10⁻⁶ cm/s
half-life [5]: 36 min
half-life [6]: 24 min
Cmax [7]: 130 ng/mL
Cmax [8]: 11300 ng/mL
Tmax [9]: 30 min
Tmax [10]: 4.8 min
AUC(0-t) [11]: 122 ng·h/mL
AUC(0-t) [12]: 5950 ng·h/mL
AUC(0-t) [13]: 92 ng·h/mL
AUC [14]: 5960 ng·h/mL
AUC [15]: 93 ng·h/mL
clearance [16]: 180 mL/min/kg
Vd [17]: 2.9 L/kg
bioavailability [18]: 13%
bioavailability [19]: > 100%
AUC [20]: 2810 ng·h/mL
AUC [21]: 2430 ng·h/mL
Compound: CCC(=O)N(CC1(N2CCN(CC(C)C)CC2)CCOCC1)c1cccc(C(F)(F)F)n1
